# Experimental data: PubChem BioAssay (NCI)
#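 Tested at 5 concentrations; 48 h exposure; 96-well plates; endpoints linearly interpolated, else capped at highest concentration. TGI denotes the concentration required for complete inhibition of growth.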
# Key:
# Test in all cases: DTP human tumour cell line panel, 48 h
# [1] = system: PC-3 prostate
# [2] = system: LOX IMVI melanoma
# [3] = system: HCT-116 colon
# [4] = system: SR leukemia
# [5] = system: NCI-H460 lung
# [6] = system: T-47D breast
# [7] = system: HOP-62 NSCLC
# [8] = system: NCI-H23 lung
# [9] = system: SK-MEL-2 melanoma
# [10] = system: OVCAR-3 ovarian
# [11] = system: SK-MEL-28 melanoma
# [12] = system: CAKI-1 renal
Compound,TGI [1] [µM],TGI [2] [µM],TGI [3] [µM],TGI [4] [µM],TGI [5] [µM],TGI [6] [µM],TGI [7] [µM],TGI [8] [µM],TGI [9] [µM],TGI [10] [µM],TGI [11] [µM],TGI [12] [µM]
CC(C)CCNC(=O)c1ccc(CNC(=O)/C=C/c2ccc(OCc3ccccc3)cc2)cc1,> 100,> 100,> 100,> 100,> 100,> 100,> 100,> 100,> 100,> 100,> 100,> 100
CC1=CC=CC(C)(C)CC1(O[Si](C)(C)C)C(F)(F)F (stereo not drawn),> 100,> 100,> 100,> 100,> 100,> 100,> 100,> 100,> 100,> 100,> 100,> 100
CCN(CCCN(CC)C(=O)N[C@@H](Cc1ccccc1)C(=O)NC)C(=O)N[C@@H](Cc1ccccc1)C(=O)NC,> 100,> 100,> 100,> 100,> 100,> 100,> 100,> 100,> 100,> 100,> 100,> 100
O=C(O[C@H](/C=C/c1ccccc1)P1(=O)N(Cc2ccccc2)[C@@H]2CCCC[C@H]2N1Cc1ccccc1)c1ccccc1,> 100,11.8,12.1,> 100,> 100,3.66,> 100,7.43,5.53,94.3,> 100,6.93
O=C1OC[C@@H]2Cc3c([nH]c4ccccc34)[C@@H](c3ccc(O)cc3)N12,> 100,46.3,35,> 87.4,81.4,> 100,> 84.6,54.6,67.6,43.8,> 100,97.5
CCN(CC)CCCn1c(=O)c2cccnc2n2c3c(=O)n(C)c(=O)n(C)c3nc12,> 100,> 100,> 100,> 100,> 100,> 100,> 100,> 100,> 100,> 100,> 100,> 100
N#Cc1c(OCCF)c2ccccc2n2c1nc1ccccc12,> 100,> 100,> 100,> 100,> 100,> 100,> 100,> 100,> 100,> 100,> 100,> 100
N#Cc1c2c(c(Nc3ccc(F)cc3)n3c1nc1ccccc13)CCC2,19,5.37,3.45,> 100,23,24,11.2,17.6,40.6,18.5,23.7,3.5
CCOC(=O)C1C(=O)CC(O)(c2ccccc2)C(C(=O)OCC)C1c1ccc(OC)cc1 (stereo not drawn),> 96.4,> 64.7,> 47,32.5,> 100,> 100,> 100,> 100,77.6,42.8,> 100,> 100
O=C1/C(=C/c2ccc(Br)s2)NC(=S)N1CN1CCOCC1,> 100,61.4,> 100,55.2,> 100,> 100,> 100,> 100,> 100,> 100,> 100,66.5
CCOC(=O)C(=O)N1C(C)=C(C(=O)OCC)CC(C(=O)OCC)=C1C,> 100,> 100,> 100,> 100,> 100,> 100,> 100,> 100,> 100,> 100,> 100,> 100
CCC[C@H](C)[C@H]1NC(=O)[C@@H](NC(=O)[C@@H](CC(C)C)N(C)C(=O)C2CCCN2C(=O)[C@H](C)O)[C@@H](C)OC(=O)[C@H](CC(C)C)N(C)C(=O)[C@@H]2CCCN2C(=O)[C@H](CC(C)C)NC(=O)[C@@H](C)C(=O)[C@H](C(C)C)OC(=O)C[C@@H]1O (stereo partly drawn),0.0169,0.00309,0.00356,0.0422,0.0289,0.25,0.00842,0.00447,0.00468,0.0117,< 0.0025,1.54
CN1CN(c2ccccc2)C2(CCN(CCCC3(c4cccs4)OCCO3)CC2)C1=O,> 100,> 100,> 100,> 100,> 100,> 100,> 100,> 100,> 100,> 100,> 100,> 100
Cc1cc(C)c2c(n1)S(=O)(=O)N(CCCN1CCN(c3cccc(C(F)(F)F)c3)CC1)/C(=C(\O)c1ccc(Cl)cc1)C2=O,13.6,17.6,11.9,> 100,11,38.9,37.1,14,16.8,18.9,29.8,8.77
